Test results as given in ChEMBL document CHEMBL5678816, “A Next-Generation TRK Kinase Inhibitor Overcomes Acquired Resistance to Prior TRK Kinase Inhibition in Patients with TRK Fusion-Positive Solid Tumors” (Cancer Discov, 2017).
Activity calls are given as the source filed them. The rule behind the calls is not given here.

Assays:
[1] = target: Insulin-like growth factor 1 receptor (Homo sapiens) (UniProt P08069); assay: Inhibition of Activated IGF-1R (unknown origin) at 1 uM in presence of ATP relative to control; values are per cent of control
[2] = target: Rho-associated protein kinase 2 (Homo sapiens) (UniProt O75116); assay: Inhibition of ROCK-II (unknown origin) at 1 uM in presence of ATP relative to control; values are per cent of control
[3] = target: Serine/threonine-protein kinase ULK2 (Homo sapiens) (UniProt Q8IYT8); assay: Inhibition of ULK2 (unknown origin) at 1 uM in presence of ATP relative to control; values are per cent of control
[4] = target: Serine/threonine-protein kinase WNK3 (Homo sapiens) (UniProt Q9BYP7); assay: Inhibition of WNK3 (unknown origin) at 1 uM in presence of ATP relative to control; values are per cent of control
Homo sapiens = organism: Homo sapiens; assay: Inhibition of Abl-P (unknown origin) at 1 uM in presence of ATP relative to control; values are per cent of control
[5] = target: Platelet-derived growth factor receptor alpha (Homo sapiens) (UniProt P16234); assay: Inhibition of PDGFRalpha (unknown origin) at 1 uM in presence of ATP relative to control; values are per cent of control
[6] = Cmax in adult patient with recurrent LMNA-NTRK1 rearranged colorectal cancer at 100 mg administered twice a day as powder-in-capsule or liquid formulation for 22 days by LC-MS/MS analysis; assay type: ADME; conditions: human, in vivo, oral, time 22 day
KM12 = assay: Inhibition of cell proliferation in TPM3-NTRK1 fusion positive human KM12 cells incubated for 72 hrs by DAPI staining based analysis; assay type: functional; conditions: KM12, 72 h
[7] = Cmin in pediatric patient with recurrent ETV6-NTRK3-rearranged infantile fibrosarcoma at 60 mg administered twice a day as liquid formulation for 29 day and measured 12 hrs post dose by LC-MS/MS analysis; assay type: ADME; conditions: human, in vivo, read-out: Cmin
[8] = target: Interleukin-1 receptor-associated kinase 4 (Homo sapiens) (UniProt Q9NWZ3); assay: Inhibition of IRAK4 (unknown origin) at 1 uM in presence of ATP relative to control; values are per cent of control
[9] = target: Mitogen-activated protein kinase 9 (Homo sapiens) (UniProt P45984); assay: Inhibition of JNK2alpha2 (unknown origin) at 1 uM in presence of ATP relative to control; values are per cent of control
[10] = target: Dual specificity mitogen-activated protein kinase kinase 1 (Homo sapiens) (UniProt Q02750); assay: Inhibition of MEK1 (unknown origin) at 1 uM in presence of ATP relative to control; values are per cent of control
[11] = target: Testis-specific serine/threonine-protein kinase 2 (Homo sapiens) (UniProt Q96PF2); assay: Inhibition of TSSK2 (unknown origin) at 1 uM in presence of ATP relative to control; values are per cent of control
[12] = target: Tyrosine-protein kinase Fgr (Homo sapiens) (UniProt P09769); assay: Inhibition of Fgr (unknown origin) at 1 uM in presence of ATP relative to control; values are per cent of control
[13] = target: RAC-beta serine/threonine-protein kinase (Homo sapiens) (UniProt P31751); assay: Inhibition of AKT2 (unknown origin) at 1 uM in presence of ATP relative to control; values are per cent of control
CAL-62 = assay: Inhibition of cell proliferation in human CAL-62 cells upto 10 umol/L incubated for 72 hrs by DAPI staining based analysis; assay type: functional; conditions: dose <= 10.0 µmol/L
[14] = target: Serine/threonine-protein kinase PLK1 (Homo sapiens) (UniProt P53350); assay: Inhibition of Plk1 (unknown origin) at 1 uM in presence of ATP relative to control; values are per cent of control
L-428 = assay: Inhibition of cell proliferation in human L428 cells upto 10 umol/L incubated for 72 hrs by DAPI staining based analysis; assay type: functional; conditions: dose <= 10.0 µmol/L
[15] = Toxicity in nu/nu NCr mouse implanted with mouse NIH3T3 cells harboring extracellular domain deleted TRKA G595R mutant assessed as body weight loss at 30 to 300 mg/kg, po administered twice daily for 12 days relative to control; assay type: organism-based; conditions: in vivo, 288 h, dose 30-300 mg/kg, time 12 day
[16] = target: Serine/threonine-protein kinase BRSK1 (Homo sapiens) (UniProt Q8TDC3); assay: Inhibition of BrSK1 (unknown origin) at 1 uM in presence of ATP relative to control; values are per cent of control
[17] = target: Vascular endothelial growth factor receptor 1 (Homo sapiens) (UniProt P17948); assay: Inhibition of FLt1 (unknown origin) at 1 uM in presence of ATP relative to control; values are per cent of control
[18] = target: Tyrosine-protein kinase Fer (Homo sapiens) (UniProt P16591); assay: Inhibition of Fer (unknown origin) at 1 uM in presence of ATP relative to control; values are per cent of control
[19] = target: Tyrosine-protein kinase SYK (Homo sapiens) (UniProt P43405); assay: Inhibition of Syk (unknown origin) at 1 uM in presence of ATP relative to control; values are per cent of control
[20] = target: Tyrosine-protein kinase Lyn (Homo sapiens) (UniProt P07948); assay: Inhibition of Lyn (unknown origin) at 1 uM in presence of ATP relative to control; values are per cent of control
[21] = target: Serine/threonine-protein kinase Nek11 (Homo sapiens) (UniProt Q8NG66); assay: Inhibition of NEK11 (unknown origin) at 1 uM in presence of ATP relative to control; values are per cent of control
[22] = target: Ephrin type-A receptor 8 (Homo sapiens) (UniProt P29322); assay: Inhibition of EphA8 (unknown origin) at 1 uM in presence of ATP relative to control; values are per cent of control
[23] = target: Cyclin-dependent kinase 2/cyclin E1 (Homo sapiens) (UniProt P24864+P24941); assay: Inhibition of CDK2/cyclinE (unknown origin) at 1 uM in presence of ATP relative to control; values are per cent of control

Sequence of Interleukin-1 receptor-associated kinase 4 (Homo sapiens) (Q9NWZ3 whole entry): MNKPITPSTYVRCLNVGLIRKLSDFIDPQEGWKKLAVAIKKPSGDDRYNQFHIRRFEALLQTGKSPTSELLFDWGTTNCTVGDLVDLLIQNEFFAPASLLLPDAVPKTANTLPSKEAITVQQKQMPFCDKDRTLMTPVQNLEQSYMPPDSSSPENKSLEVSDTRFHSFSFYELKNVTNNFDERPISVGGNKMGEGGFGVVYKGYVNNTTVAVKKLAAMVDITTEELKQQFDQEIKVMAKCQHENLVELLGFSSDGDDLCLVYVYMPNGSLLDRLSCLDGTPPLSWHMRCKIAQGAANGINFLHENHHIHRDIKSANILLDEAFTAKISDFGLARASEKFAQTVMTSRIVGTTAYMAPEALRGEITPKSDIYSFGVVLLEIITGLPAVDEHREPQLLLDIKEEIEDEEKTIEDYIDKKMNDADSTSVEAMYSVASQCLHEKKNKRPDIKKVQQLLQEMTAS
Sequence of Mitogen-activated protein kinase 9 (Homo sapiens) (P45984 whole entry, looked up): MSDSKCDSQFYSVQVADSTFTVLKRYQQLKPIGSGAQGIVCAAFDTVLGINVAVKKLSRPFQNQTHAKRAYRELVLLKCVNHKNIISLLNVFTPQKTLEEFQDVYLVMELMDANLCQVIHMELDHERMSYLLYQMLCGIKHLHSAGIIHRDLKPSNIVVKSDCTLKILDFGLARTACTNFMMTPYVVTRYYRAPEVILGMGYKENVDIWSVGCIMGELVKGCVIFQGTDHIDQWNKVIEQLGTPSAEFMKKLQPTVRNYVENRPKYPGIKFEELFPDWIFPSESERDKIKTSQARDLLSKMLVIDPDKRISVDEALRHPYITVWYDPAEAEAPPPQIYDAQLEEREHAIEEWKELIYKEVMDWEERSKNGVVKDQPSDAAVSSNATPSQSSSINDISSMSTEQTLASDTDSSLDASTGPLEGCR
Sequence of Serine/threonine-protein kinase BRSK1 (Homo sapiens) (Q8TDC3 whole entry): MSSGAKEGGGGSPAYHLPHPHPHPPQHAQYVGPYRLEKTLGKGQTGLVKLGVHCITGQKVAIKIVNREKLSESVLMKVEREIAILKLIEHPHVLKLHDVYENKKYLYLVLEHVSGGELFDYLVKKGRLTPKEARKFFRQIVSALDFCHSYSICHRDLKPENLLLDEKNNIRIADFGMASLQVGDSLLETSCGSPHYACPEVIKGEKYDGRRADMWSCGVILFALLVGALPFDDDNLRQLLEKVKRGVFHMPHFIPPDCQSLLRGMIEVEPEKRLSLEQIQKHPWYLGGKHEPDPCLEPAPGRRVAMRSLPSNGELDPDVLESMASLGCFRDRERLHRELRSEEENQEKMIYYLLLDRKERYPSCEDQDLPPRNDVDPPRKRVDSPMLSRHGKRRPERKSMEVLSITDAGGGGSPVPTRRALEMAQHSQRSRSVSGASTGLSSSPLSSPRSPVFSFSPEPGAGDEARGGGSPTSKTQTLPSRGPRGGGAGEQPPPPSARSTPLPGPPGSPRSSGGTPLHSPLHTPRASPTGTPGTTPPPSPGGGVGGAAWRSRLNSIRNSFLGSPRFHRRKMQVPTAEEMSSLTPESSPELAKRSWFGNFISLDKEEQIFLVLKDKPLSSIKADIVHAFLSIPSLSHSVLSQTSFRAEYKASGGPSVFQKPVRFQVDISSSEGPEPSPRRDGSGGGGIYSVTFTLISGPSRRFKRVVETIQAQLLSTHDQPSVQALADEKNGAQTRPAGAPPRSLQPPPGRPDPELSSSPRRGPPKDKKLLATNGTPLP
Sequence of RAC-beta serine/threonine-protein kinase (Homo sapiens) (P31751 whole entry): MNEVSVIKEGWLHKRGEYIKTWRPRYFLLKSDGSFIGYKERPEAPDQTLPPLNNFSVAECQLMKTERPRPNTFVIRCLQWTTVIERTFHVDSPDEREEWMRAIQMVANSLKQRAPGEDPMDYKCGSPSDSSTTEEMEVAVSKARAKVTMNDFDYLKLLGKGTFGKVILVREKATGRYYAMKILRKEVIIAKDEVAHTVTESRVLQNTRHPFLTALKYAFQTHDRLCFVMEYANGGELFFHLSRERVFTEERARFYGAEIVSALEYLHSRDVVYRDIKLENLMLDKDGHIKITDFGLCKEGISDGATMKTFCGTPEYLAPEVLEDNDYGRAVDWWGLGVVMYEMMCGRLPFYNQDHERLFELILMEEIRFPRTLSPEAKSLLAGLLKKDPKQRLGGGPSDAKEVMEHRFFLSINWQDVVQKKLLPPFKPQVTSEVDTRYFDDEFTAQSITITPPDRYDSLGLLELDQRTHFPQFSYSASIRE
Sequence of Serine/threonine-protein kinase WNK3 (Homo sapiens) (Q9BYP7 whole entry): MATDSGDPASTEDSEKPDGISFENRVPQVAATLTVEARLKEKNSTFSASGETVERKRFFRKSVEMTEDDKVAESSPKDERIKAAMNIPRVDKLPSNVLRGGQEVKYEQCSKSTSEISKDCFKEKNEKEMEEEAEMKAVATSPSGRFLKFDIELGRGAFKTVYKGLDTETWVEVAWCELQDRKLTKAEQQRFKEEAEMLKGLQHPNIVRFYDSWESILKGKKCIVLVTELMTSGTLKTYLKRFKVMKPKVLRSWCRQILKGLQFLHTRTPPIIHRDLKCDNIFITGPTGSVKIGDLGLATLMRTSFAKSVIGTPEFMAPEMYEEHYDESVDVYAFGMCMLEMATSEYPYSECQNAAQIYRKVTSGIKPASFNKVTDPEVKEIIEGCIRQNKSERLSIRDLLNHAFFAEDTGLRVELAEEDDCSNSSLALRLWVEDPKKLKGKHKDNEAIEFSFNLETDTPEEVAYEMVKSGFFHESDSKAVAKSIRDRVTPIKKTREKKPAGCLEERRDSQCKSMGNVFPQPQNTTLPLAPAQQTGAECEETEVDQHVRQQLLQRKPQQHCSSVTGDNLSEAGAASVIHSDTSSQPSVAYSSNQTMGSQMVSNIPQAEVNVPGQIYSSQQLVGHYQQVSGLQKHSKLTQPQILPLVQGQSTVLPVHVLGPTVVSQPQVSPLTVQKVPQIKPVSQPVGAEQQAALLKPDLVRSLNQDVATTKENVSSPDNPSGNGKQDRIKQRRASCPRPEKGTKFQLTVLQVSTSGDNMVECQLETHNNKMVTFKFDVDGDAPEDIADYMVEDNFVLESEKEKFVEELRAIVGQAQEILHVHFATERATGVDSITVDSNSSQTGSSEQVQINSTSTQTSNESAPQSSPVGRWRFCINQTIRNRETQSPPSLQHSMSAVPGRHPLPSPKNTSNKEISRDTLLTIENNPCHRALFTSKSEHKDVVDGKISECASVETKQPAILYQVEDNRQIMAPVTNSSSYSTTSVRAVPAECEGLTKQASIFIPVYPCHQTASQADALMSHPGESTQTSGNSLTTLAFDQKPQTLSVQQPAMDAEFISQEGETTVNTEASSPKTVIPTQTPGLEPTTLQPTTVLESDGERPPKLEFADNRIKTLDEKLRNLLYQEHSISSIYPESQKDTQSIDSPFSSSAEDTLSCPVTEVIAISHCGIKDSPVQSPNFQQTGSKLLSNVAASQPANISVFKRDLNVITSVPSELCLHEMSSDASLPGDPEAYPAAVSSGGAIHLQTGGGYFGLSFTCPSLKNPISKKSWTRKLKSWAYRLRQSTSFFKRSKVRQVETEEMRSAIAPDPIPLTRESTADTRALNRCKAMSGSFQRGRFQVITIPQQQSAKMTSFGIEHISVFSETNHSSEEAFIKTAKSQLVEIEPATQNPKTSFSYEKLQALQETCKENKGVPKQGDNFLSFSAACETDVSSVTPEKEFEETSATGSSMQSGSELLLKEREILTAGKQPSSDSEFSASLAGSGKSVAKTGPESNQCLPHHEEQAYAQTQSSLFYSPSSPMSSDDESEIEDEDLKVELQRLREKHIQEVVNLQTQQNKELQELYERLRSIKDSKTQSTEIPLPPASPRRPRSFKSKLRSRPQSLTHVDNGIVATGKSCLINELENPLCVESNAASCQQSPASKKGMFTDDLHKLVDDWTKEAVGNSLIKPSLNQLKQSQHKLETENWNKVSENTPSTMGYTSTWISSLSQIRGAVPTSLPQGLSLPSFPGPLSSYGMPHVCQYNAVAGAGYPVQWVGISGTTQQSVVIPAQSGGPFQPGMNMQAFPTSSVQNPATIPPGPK
Sequence of Serine/threonine-protein kinase Nek11 (Homo sapiens) (Q8NG66 whole entry): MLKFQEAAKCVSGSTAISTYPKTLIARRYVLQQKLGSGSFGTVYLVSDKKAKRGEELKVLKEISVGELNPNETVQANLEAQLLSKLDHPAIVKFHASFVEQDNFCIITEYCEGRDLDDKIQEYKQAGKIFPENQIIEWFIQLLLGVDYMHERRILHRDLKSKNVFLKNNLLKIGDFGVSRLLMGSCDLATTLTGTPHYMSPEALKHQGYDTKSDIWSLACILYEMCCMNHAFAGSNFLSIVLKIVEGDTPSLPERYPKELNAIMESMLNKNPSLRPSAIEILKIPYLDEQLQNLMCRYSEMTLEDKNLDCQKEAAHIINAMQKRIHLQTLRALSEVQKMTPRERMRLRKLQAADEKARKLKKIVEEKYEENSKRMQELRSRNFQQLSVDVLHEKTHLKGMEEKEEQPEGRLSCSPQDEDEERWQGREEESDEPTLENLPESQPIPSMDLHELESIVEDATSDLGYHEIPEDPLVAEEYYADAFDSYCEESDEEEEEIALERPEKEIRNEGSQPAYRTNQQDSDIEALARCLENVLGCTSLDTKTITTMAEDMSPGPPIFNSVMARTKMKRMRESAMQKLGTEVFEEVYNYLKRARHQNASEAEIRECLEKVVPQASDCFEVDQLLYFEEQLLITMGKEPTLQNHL
Sequence of Testis-specific serine/threonine-protein kinase 2 (Homo sapiens) (Q96PF2 whole entry): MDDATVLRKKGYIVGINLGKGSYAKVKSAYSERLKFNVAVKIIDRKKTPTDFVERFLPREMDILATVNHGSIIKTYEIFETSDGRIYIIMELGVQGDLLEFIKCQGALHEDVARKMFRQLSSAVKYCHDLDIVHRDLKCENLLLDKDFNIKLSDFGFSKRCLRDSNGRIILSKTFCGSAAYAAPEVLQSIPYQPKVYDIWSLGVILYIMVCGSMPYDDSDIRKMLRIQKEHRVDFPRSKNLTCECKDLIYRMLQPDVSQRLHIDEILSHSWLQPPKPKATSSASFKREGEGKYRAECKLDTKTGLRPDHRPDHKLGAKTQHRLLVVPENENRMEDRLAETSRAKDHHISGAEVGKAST

C[C@@H]1CCc2ncc(F)cc2[C@H]2CCCN2c2ccn3ncc(c3n2)C(=O)N1 [SELITRECTINIB]
residual activity [1]: 84.5%
residual activity [2]: 105%
residual activity [3]: 96%
residual activity [4]: 110%
residual activity (Homo sapiens): 87%
residual activity [5]: 104%
Cmax [6]: 800 ng/mL
IC50 (KM12): ≤ 5 nM
concentration at 708 h [7]: 12 ng/mL
residual activity [8]: 95%
residual activity [9]: 100%
residual activity [10]: 122%
residual activity [11]: 120%
residual activity [12]: 96%
residual activity [13]: 121%
inhibition (CAL-62): inactive
residual activity [14]: 104%
inhibition (L-428): inactive
Activity [15]: < 5%
residual activity [16]: 108%
residual activity [17]: 101%
residual activity [18]: 91%
residual activity [19]: 114%
residual activity [20]: 98%
residual activity [21]: 112%
residual activity [22]: 81.5%
residual activity [23]: 106%
